Laboratory results taken from the supplement of paper PMC10307832.

What was measured:
Experiment in all cases: relative viability (nuclei count vs DMSO), 5 days (fraction); higher = more cells survive
ABC-1 = system: ABC-1
Summary of the method: (§1)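 Relative viability equals treated-well nuclei counts divided by vehicle-well nuclei counts. Counts came from 4× images of lung cancer cell lines grown in 1536-well plates for 5 days after pin-tool dosing on the day after seeding. Dosing used one drug alone or a fixed anchor-drug dose plus five library-drug doses (not always all listed) in √10 steps, and values are medians of duplicate plates.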

CAL-12T = system: CAL-12T
Summary of the method: as §1

ChaGo-K-1 = system: ChaGo-K-1
Summary of the method: as §1

HCC-366 = system: HCC-366
Summary of the method: as §1

HCC-78 = system: HCC-78
Summary of the method: as §1

LC-2-ad = system: LC-2-ad
Summary of the method: as §1

LOU-NH91 = system: LOU-NH91
Summary of the method: as §1

LU99A = system: LU99A
Summary of the method: as §1

NCI-H1395 = system: NCI-H1395
Summary of the method: as §1

NCI-H1651 = system: NCI-H1651
Summary of the method: as §1

NCI-H1755 = system: NCI-H1755
Summary of the method: as §1

NCI-H1793 = system: NCI-H1793
Summary of the method: as §1

NCI-H1944 = system: NCI-H1944
Summary of the method: as §1

NCI-H2087 = system: NCI-H2087
Summary of the method: as §1

NCI-H2170 = system: NCI-H2170
Summary of the method: as §1

NCI-H2405 = system: NCI-H2405
Summary of the method: as §1

NCI-H3122 = system: NCI-H3122
Summary of the method: as §1

NCI-H460 = system: NCI-H460
Summary of the method: as §1

PC-3 [JPC-3] = system: PC-3 [JPC-3]
Summary of the method: as §1

RERF-LC-KJ = system: RERF-LC-KJ
Summary of the method: as §1

Molecule `COc1nc(C)cnc1NS(=O)(=O)c1cccnc1-c1ccc(-c2nnco2)cc1` [Zibotentan] + NC(=O)Nc1cc(-c2cccc(F)c2)sc1C(=O)N[C@H]1CCCNC1 [AZD7762] (partner 0.2 µM) has a relative viability (ABC-1; first compound 0.08 µM) of 0.711, a relative viability (ABC-1; first compound 0.253 µM) of 0.86 and a relative viability (ABC-1; first compound 0.8 µM) of 0.765. It also gave a relative viability (ABC-1; first compound 2.53 µM) of 0.843, a relative viability (CAL-12T; first compound 0.08 µM) of 0.604 and a relative viability (CAL-12T; first compound 0.253 µM) of 0.498. For the same molecule, the relative viability (CAL-12T; first compound 0.8 µM) was 0.526, the relative viability (CAL-12T; first compound 2.53 µM) was 0.666 and the relative viability (ChaGo-K-1; first compound 0.08 µM) was 0.912. For the same molecule, the relative viability (ChaGo-K-1; first compound 0.253 µM) was 0.842, the relative viability (ChaGo-K-1; first compound 0.8 µM) was 0.756 and the relative viability (ChaGo-K-1; first compound 2.53 µM) was 0.927. It also gave a relative viability (HCC-366; first compound 0.08 µM) of 0.28, a relative viability (HCC-366; first compound 0.253 µM) of 0.208 and a relative viability (HCC-366; first compound 0.8 µM) of 0.103. For the same molecule, the relative viability (HCC-366; first compound 2.53 µM) was 0.343, the relative viability (HCC-78; first compound 0.08 µM) was 0.712 and the relative viability (HCC-78; first compound 0.253 µM) was 0.475. For the same molecule, the relative viability (HCC-78; first compound 0.8 µM) was 0.664, the relative viability (HCC-78; first compound 2.53 µM) was 0.474 and the relative viability (LC-2-ad; first compound 0.08 µM) was 0.785. The relative viability (LC-2-ad; first compound 0.253 µM) was 0.781, the relative viability (LC-2-ad; first compound 0.8 µM) was 0.791 and the relative viability (LC-2-ad; first compound 2.53 µM) was 0.905. It also gave a relative viability (LOU-NH91; first compound 0.08 µM) of 0.838, a relative viability (LOU-NH91; first compound 0.253 µM) of 0.702 and a relative viability (LOU-NH91; first compound 0.8 µM) of 0.773. For the same molecule, the relative viability (LOU-NH91; first compound 2.53 µM) was 0.795, the relative viability (LU99A; first compound 0.08 µM) was 0.425 and the relative viability (LU99A; first compound 0.253 µM) was 0.412. It also gave a relative viability (LU99A; first compound 0.8 µM) of 0.228, a relative viability (LU99A; first compound 2.53 µM) of 0.429 and a relative viability (NCI-H1395; first compound 0.08 µM) of 0.417. For the same molecule, the relative viability (NCI-H1395; first compound 0.253 µM) was 0.349, the relative viability (NCI-H1395; first compound 0.8 µM) was 0.401 and the relative viability (NCI-H1395; first compound 2.53 µM) was 0.441. For the same molecule, the relative viability (NCI-H1651; first compound 0.08 µM) was 0.448, the relative viability (NCI-H1651; first compound 0.253 µM) was 0.389 and the relative viability (NCI-H1651; first compound 0.8 µM) was 0.446. The relative viability (NCI-H1651; first compound 2.53 µM) was 0.419, the relative viability (NCI-H1755; first compound 0.08 µM) was 0.452 and the relative viability (NCI-H1755; first compound 0.253 µM) was 0.464. The relative viability (NCI-H1755; first compound 0.8 µM) was 0.387, the relative viability (NCI-H1755; first compound 2.53 µM) was 0.471 and the relative viability (NCI-H1793; first compound 0.08 µM) was 0.658. For the same molecule, the relative viability (NCI-H1793; first compound 0.253 µM) was 0.341, the relative viability (NCI-H1793; first compound 0.8 µM) was 0.37 and the relative viability (NCI-H1793; first compound 2.53 µM) was 0.495. The relative viability (NCI-H1944; first compound 0.08 µM) was 0.561, the relative viability (NCI-H1944; first compound 0.253 µM) was 0.487 and the relative viability (NCI-H1944; first compound 0.8 µM) was 0.249. For the same molecule, the relative viability (NCI-H1944; first compound 2.53 µM) was 0.548, the relative viability (NCI-H2087; first compound 0.08 µM) was 1.28 and the relative viability (NCI-H2087; first compound 0.253 µM) was 1.22. It also gave a relative viability (NCI-H2087; first compound 0.8 µM) of 1.29, a relative viability (NCI-H2087; first compound 2.53 µM) of 1.29 and a relative viability (NCI-H2170; first compound 0.08 µM) of 0.979. The relative viability (NCI-H2170; first compound 0.253 µM) was 0.881, the relative viability (NCI-H2170; first compound 0.8 µM) was 0.675 and the relative viability (NCI-H2170; first compound 2.53 µM) was 0.881. The relative viability (NCI-H2405; first compound 0.08 µM) was 0.766, the relative viability (NCI-H2405; first compound 0.253 µM) was 0.701 and the relative viability (NCI-H2405; first compound 0.8 µM) was 0.654. The relative viability (NCI-H2405; first compound 2.53 µM) was 0.846, the relative viability (NCI-H3122; first compound 0.08 µM) was 1.01 and the relative viability (NCI-H3122; first compound 0.253 µM) was 0.999. For the same molecule, the relative viability (NCI-H3122; first compound 0.8 µM) was 0.915, the relative viability (NCI-H3122; first compound 2.53 µM) was 0.966 and the relative viability (NCI-H460; first compound 0.08 µM) was 0.784. For the same molecule, the relative viability (NCI-H460; first compound 0.253 µM) was 0.539, the relative viability (NCI-H460; first compound 0.8 µM) was 0.251 and the relative viability (NCI-H460; first compound 2.53 µM) was 0.749. The relative viability (PC-3 [JPC-3]; first compound 0.08 µM) was 0.711, the relative viability (PC-3 [JPC-3]; first compound 0.253 µM) was 0.654 and the relative viability (PC-3 [JPC-3]; first compound 0.8 µM) was 0.733. The relative viability (PC-3 [JPC-3]; first compound 2.53 µM) was 0.861, the relative viability (RERF-LC-KJ; first compound 0.08 µM) was 1.16 and the relative viability (RERF-LC-KJ; first compound 0.253 µM) was 0.938. The relative viability (RERF-LC-KJ; first compound 0.8 µM) was 0.841 and the relative viability (RERF-LC-KJ; first compound 2.53 µM) was 0.909.
